Several values for one entry are separate records, joined by “and”; a condition that tells them apart may be missing. Identical values can stand only once. Positions of bridges follow the written chain, without caps; N, C: chain ends. Non-standard residues stand in square brackets, D forms with d. Residues, ends and D or L forms follow the SMILES beside them. Triazole bridges read from a SMILES are 1,4-linked. Lys(N3) = [N-]=[N+]=NCCCC[C@H](N)C(=O)O; Pra = C#CC[C@H](N)C(=O)O
Legend:
[1] = Circular dichroism in liposomes mimicking eukaryotic membranes; type: physicochemical; conditions: SUVs DOPC:Chol 70:30, peptide 80 μM; for helical content: CD, phosphate buffer 5 mM pH 7.4, 25 °C, from [θ]222
Method: The circular dichroism spectra of the selected peptides (3, 7, 15 and 16) were recorded in small unilamellar vesicles (SUVs) composed of PE/PC/PI/Ergosterol (5:4:1:2, w/w/w/w, final lipid concentration = 0.01 mM) and DOPC/Chol (70:30, ratio in moles, final lipid concentration = 0.1 mM), between 190 and 260 nm on a JASCO J-710 CD spectropolarimeter at 25 °C using quartz cells with a 0.1-cm path length. The SUVs were prepared as reported in the following protocol. Once the lipid films were prepared as described above, they were hydrated with a phosphate buffer (5 mM, pH 7.4) (DOPC:Chol) or water (PE/PC/PI/Ergosterol) for 1 h and sonicated for 40 min. The peptides were dissolved in water to form a sample with a concentration of 80 μM in SUVs made of DOPC/Chol, while a peptide concentration of 10 μM was used in SUVs made of PE/PC/PI/Ergosterol. We accumulated the data three times, and all spectral data were subtracted from the background. Each spectrum converted the signal to the mean molar ellipticity, and we calculated the ratio of the ellipticities at 222 and 208 nm to discriminate between the monomeric and oligomeric states of the helices. The helix content was calculated as follows: [θ]222/(−40,000[1 − 2.5/n)], where [θ]222 is the ellipticity measurement at 222 nm and n is the number of amino acid residues.

[2] = ANTS/DPX leakage, eukaryotic membrane-like LUVs; conditions: peptide 50 μM, Chol/DOPC LUVs 0.1 mM lipid, PBS pH 7.2, 10 min, fluorescence 385/512 nm
Method: (§1) ANTS/DPX-entrapped large unilamellar vesicles (LUVs) composed of PE/PC/PI/Ergosterol (5:4:1:2, w/w/w/w) and Chol/DOPC (70:30, ratio in moles) were prepared by the extrusion method as previously described in [28]. First, the lipid films were prepared by dissolving lipids in the proper ratio in chloroform to have a final concentration of 0.1 mM and then dried under a nitrogen gas stream. The probes of ANTS (12.5 mM) and DPX (45 mM) dissolved in water were added to the lipid films, and the mixture was freeze-dried overnight. The lipid films with encapsulated ANTS and DPX were hydrated with a PBS 1× buffer (pH = 7.2), vortexed for 1 h, freeze-thawed 6 times and extruded 10 times through 0.1-μm pore size polycarbonate filters to obtain the LUVs. The LUVs with entrapped ANTS and DPX were separated from the free ANTS and DPX by gel filtration chromatography on a Sephadex G-50 column (1.5 × 10 cm). The assay was based on the measurement of dequenching of ANTS by DPX when the LUVs were incubated with peptide concentrations of 5, 10, 15, 20, 30 and 50 μM. The increase in ANT fluorescence was recorded at an excitation fluorescence at 385 nm (slit width: 5 nm) and a fluorescence emission at 512 nm (slit width: 5 nm) for 10 min after the addition of the peptide. The destruction of all LUVs and the complete release of ANTs were obtained after treatment with 10% Triton-X. The percentage of liposome leakage was calculated as %leakage = (Fi − F0)/(Ft − F0), where F0 represents the fluorescence of the intact LUVs before the addition of the peptide and Fi and Ft are the intensities of the fluorescence achieved after peptide and Triton-X treatment, respectively.

[3] = system: S. typhimurium strain TA100; type: cell-based; conditions: 12.5 µM, TA100 without S9, 37 °C, 5 days, duplicate; MR ≥2 = mutagenic
Method: The fluctuation Ames test was performed according to the manufacturer’s protocol provided for the Muta-ChromoPlate Bacterial Strain Kit (EBPI, Canada) and according to OECD Guideline 471 (OECD Guidelines for the Testing of Chemicals, Section 4, Test No. 471: Bacterial Reverse Mutation Test). S. typhimurium strain TA100 was used to assess the bacterial reverse mutation from amino acid (histidine) auxotrophy to prototrophy after exposure to mutagens. The overnight TA100 cultures were exposed to each peptide at a 12.5-µM concentration in the presence of bromocresol purple and then dispensed into 96-well microtiter plates. The plates were incubated at 37 °C for 5 days. After this period, the number of positive colonies was counted and statistically compared with the number of positive colonies in the blank wells to identify the spontaneous mutation rate. The negative control was distilled water, while the positive control was sodium azide for TA100 without S9. All experiments were conducted in duplicate. The results were expressed as the mutagenicity ratio (MR) and were obtained by dividing the number of reverse mutation colonies by the spontaneous mutation rate. When the MR was ≥2, the sample was judged to be mutagenic.

[4] = Critical aggregation concentration with Nile red; type: physicochemical; conditions: aqueous solution, Nile red 500 nM, 1 h, peptide 1-200 μM, emission maximum fitted with Boltzmann sigmoid, triplicate
Method: The peptide aggregation in the aqueous solution was monitored using Nile red as a dye probe. Nile red has poor solubility in water, and it has a large tendency to move in a hydrophobic environment as aggregates, showing a blue shift. First, the stock solutions of the peptides were prepared by dissolving them in ethanol, and then different aliquots were taken to prepare the peptide solutions at different concentrations (1, 5, 10, 15, 20, 30, 50, 100 and 200 μM). The ethanol was evaporated under a nitrogen gas stream and then dissolved with sterile water (1.5 mL), sonicated for 15 min and freeze-dried. Then, each peptide solution was hydrated with Nile red solution (C = 500 nM) in the dark place for 1 h before measurement. The emission spectra of Nile red were measured between 570 and 700 nm at a slit width of 5 nm using an excitation wavelength of 550 nm and a 10-nm slit width. The data were repeated in triplicate and analyzed by plotting the maximum emission fluorescence corresponding wavelength (y) as a function of the peptide concentration (x) and fitting with the sigmoidal Boltzmann equation: y=A1−A2/1+e^(x−x0/Δx)+A2
In the equation, A1 and A2 indicate the upper and lower limits of the sigmoid, respectively, x0 is the inflection point of the sigmoid and Δx is the parameter which represents the steepness of the function. The sigmoidal plot allows for calculating the CAC value at x0.

[5] = ANTS/DPX leakage, fungal membrane-like LUVs; conditions: for leakage activity against liposomes mimicking the fungal membrane: PE/PC/PI/ergosterol LUVs, concentration not given; for liposome leakage (ANTS release), fungal membrane-like LUVs: peptide 20 μM, PE/PC/PI/ergosterol LUVs 0.1 mM lipid, PBS pH 7.2, 10 min, fluorescence 385/512 nm
Method: as §1

| Compound | helical content [1] | liposome leakage (ANTS release), eukaryotic membrane-like LUVs [2] | mutagenicity ratio (MR) [3] | critical aggregation concentration (CAC) [4] | leakage activity against liposomes mimicking the fungal membrane [5] | liposome leakage (ANTS release), fungal membrane-like LUVs [5] | ratio of the ellipticities at 222 and 208 nm ([1]; >1 = helical aggregates) | conformation by CD in DOPC:Chol liposomes ([1]; 25 °C) |
| --- | --- | --- | --- | --- | --- | --- | --- | --- |
| CC[C@H](C)[C@H](NC(=O)[C@H](CCCNC(=N)N)NC(=O)[C@@H]1CCC(=O)NCCCC[C@H](NC(=O)[C@H](Cc2ccccc2)NC(=O)[C@H](Cc2c[nH]c3ccccc23)NC(=O)[C@@H]2CCCN2C(=O)[C@@H](NC(=O)[C@@H](N)Cc2ccccc2)C(C)C)C(=O)N[C@@H](CCCCN)C(=O)N[C@@H](Cc2ccccc2)C(=O)N[C@H](CC(C)C)C(=O)N1)C(=O)N[C@@H](CC(C)C)C(N)=O [compound 3] (H-FVPWFKKF[dL]ERIL-NH2; lactam 6-10; N-terminus assumed) | ~ 13% | ~ 28% | < 2 | 17.3 ± 0.9 µM | ~30% | ~ 30% |  |  |
| CC(C)C[C@H](NC(=O)[C@@H]1CCCCn2cc(nn2)C[C@H](NC(=O)[C@H](CCCCN)NC(=O)[C@H](CO)NC(=O)[C@H](Cc2ccccc2)NC(=O)[C@H](Cc2c[nH]c3ccccc23)NC(=O)[C@@H]2CCCN2C(=O)[C@@H](NC(=O)[C@@H](N)Cc2ccccc2)C(C)C)C(=O)N[C@H](CC(C)C)C(=O)NCC(=O)N[C@@H](CCCNC(=N)N)C(=O)N1)C(N)=O [compound 7] (H-FVPWFSK[Pra][dL]GR[Lys(N3)]L-NH2; triazole 8-12; N-terminus assumed) | ~ 23% | ~ 28% | < 2 | 45.4 ± 0.8 µM |  | lower ANTS release |  |  |
| CC[C@H](C)[C@H](NC(=O)[C@H](CCCNC(=N)N)NC(=O)[C@@H]1CCCCNC(=O)CC[C@H](NC(=O)[C@H](Cc2ccccc2)NC(=O)[C@H](Cc2c[nH]c3ccccc23)NC(=O)[C@@H]2CCCN2C(=O)[C@@H](NC(=O)[C@@H](N)Cc2ccccc2)C(C)C)C(=O)N[C@@H](CCCCN)C(=O)N[C@@H](Cc2ccccc2)C(=O)N[C@H](CC(C)C)C(=O)N1)C(=O)N[C@@H](CC(C)C)C(N)=O [compound 15] (H-FVPWFEKF[dL]KRIL-NH2; lactam 6-10; N-terminus assumed) | ~ 48% |  | < 2 | 17 µM and 17.8 ± 0.9 µM | less than 20% | lower ANTS release | greater than 1 |  |
| CC[C@H](C)[C@H](NC(=O)[C@H](CCCNC(=N)N)NC(=O)[C@@H]1CSSC[C@H](NC(=O)[C@H](Cc2ccccc2)NC(=O)[C@H](Cc2c[nH]c3ccccc23)NC(=O)[C@@H]2CCCN2C(=O)[C@@H](NC(=O)[C@@H](N)Cc2ccccc2)C(C)C)C(=O)N[C@@H](CCCCN)C(=O)N[C@@H](Cc2ccccc2)C(=O)N[C@H](CC(C)C)C(=O)N1)C(=O)N[C@@H](CC(C)C)C(N)=O [compound 16] (H-FVPWFCKF[dL]CRIL-NH2; disulfide 6-10; N-terminus assumed) |  | ~ 28% | < 2 | 42.9 ± 0.7 µM |  | lower ANTS release |  | random coil conformation |

Source: article PMC8877061, “Antifungal and Antibiofilm Activity of Cyclic Temporin L Peptide Analogues against Albicans and Non-Albicans Candida Species” (Pharmaceutics, 2022)
